Assays:
[1] = tested on: intestinal microbial communities PF+ and PF−; assay: Simulator of the Human Intestinal Microbial Ecosystem (SHIME) dosed with IX; assay type: in vitro ADME
Description: The SHIME consists of a succession of five reactors that represent the different parts of the human gastrointestinal tract. The first two reactors (stomach [reactor 1] and small intestine [reactor 2]) are of the fill-and-draw principle to simulate different steps in food uptake and digestion, with peristaltic pumps adding a defined amount of SHIME feed (3 times/day) and pancreatic and bile liquid to the stomach and duodenum compartment and emptying the respective reactors after specified intervals. The last three compartments (resp. ascending [reactor 3], transverse [reactor 4] and descending colon [reactor 5]) are continuously stirred reactors with constant volume and pH control. Retention time and pH of the different vessels were chosen in order to resemble in vivo conditions in the different parts of the gastrointestinal tract. The passage of food in the small intestine was simulated in reactor 2 by the addition of 60 ml artificial pancreatic and bile liquid, pancreatin and NaHCO3. The temperature of the system was kept at 37° C. by a thermostat and the system was kept anaerobic by flushing it with N2 for 15 min every day. Inoculum was prepared from faecal matter as described in De Boever et al. (2000) J. Nutrition 130, 2599-2606. Reactor 3, 4, and 5 were filled with nutritional medium and pH was adjusted to the respective pH range. Finally, 50 ml inoculum was added to the last three reactors.
For the present experiment, two of the above described systems were combined as two completely separate reactors, which are driven by the same pumps (pumps with two pump heads, allowing to dose exactly the same amounts of liquids to both systems), have identical pH and temperature control and which receive the same liquid food. This way, all parameters are perfectly controlled and identical, except for the intestinal microbial communities in the 2 systems which can be introduced separately. In this case we introduced a community which was capable to activate methylated prenylflavonoids (PF+) and one which could not (PF−). After a two-week stabilization period in which normal SHIME feed was dosed, 25 mg/L IX was dosed to the SHIME feed for 4 weeks (day 15-44). In the last two weeks the selected Eubacterium limosum strain of example 2, was also administered to the first colon compartment, to simulate the application of the strain as a probiotic (day 30-44).

[2] = biological target: T1, human estrogen receptor (ERα) (Homo sapiens, UniProt P03372); assay: Yeast Estrogenic Screen of extracts of fecal culture incubations with IX; assay type: cell-based
T1 construct: expressed in transfected cells; host or cells: Saccharomyces cerevisiae
T1 sequence (P03372 1-595): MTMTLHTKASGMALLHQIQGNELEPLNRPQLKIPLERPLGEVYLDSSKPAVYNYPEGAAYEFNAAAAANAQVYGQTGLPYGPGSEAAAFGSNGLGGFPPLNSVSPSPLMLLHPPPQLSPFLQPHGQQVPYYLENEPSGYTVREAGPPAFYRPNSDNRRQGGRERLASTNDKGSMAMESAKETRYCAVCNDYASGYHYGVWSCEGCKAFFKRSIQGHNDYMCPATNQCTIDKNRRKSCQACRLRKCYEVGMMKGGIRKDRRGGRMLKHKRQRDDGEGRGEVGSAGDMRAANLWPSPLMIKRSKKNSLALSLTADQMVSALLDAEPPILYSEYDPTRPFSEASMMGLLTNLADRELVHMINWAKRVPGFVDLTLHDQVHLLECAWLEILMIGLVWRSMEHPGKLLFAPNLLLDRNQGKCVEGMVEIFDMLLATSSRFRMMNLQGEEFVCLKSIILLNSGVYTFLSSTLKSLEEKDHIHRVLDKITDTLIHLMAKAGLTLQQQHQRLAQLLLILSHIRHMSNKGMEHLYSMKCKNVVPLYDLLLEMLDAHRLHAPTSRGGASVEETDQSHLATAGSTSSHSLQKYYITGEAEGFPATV
Protocol: The capacity of the cultures obtained from fecal samples A, B, C and D (further referred as cultures A-D) to degrade or transform the hop prenylflavonoid IX was tested by incubating the fecal cultures (10% (v/v)) in Brain Heart Infusion broth (with 0.5 g/l cystein-HCl) with 25 mg/l of isoxanthohumol for a period of 8 days under anaerobic conditions. Extracts of the incubations at days 0 and 8 were assayed for bioactive transformation products of IX using a Yeast Estrogenic Screen, according to De Boever et al. (2001) Env. Health Perspectives 109, 691-697, based on Routledge & Sumpter (1996) Environ. Toxicol. Chem. 15, 241-248. In brief, Saccharomyces cerevisiae, was transformed with the human estrogen receptor (ERα) gene, together with expression plasmids containing responsive elements and the lacZ reporter gene (encoding the enzyme β-galactosidase). β-galactosidase activity is quantified at 540 nm by the conversion of the chromogenic substance chlorophenol red-β-D-galactopyranoside into chlorophenol red. The bioassay response is expressed as the absorbance at 540 nm divided by the optical density at 630 nm [(A540/A630)net]. The estrogenic activity of the samples was expressed as percentage equivalence to 10 nM estradiol (E2) which elicited a 100% response in the estrogen receptor bioassay. […]

[3] = tested on: human fecal cultures; assay: Incubation of IX with human fecal cultures (E-L; 51 fecal samples) for 3 days; assay type: in vitro ADME
Protocol: Fecal slurries of 20% (w/v) fresh fecal samples were prepared by homogenizing the feces with phosphate buffered saline (0.1 M, pH 7) containing 1 g/l sodiumthioglycolate as reducing agent. The particulate material was removed by centrifugation (1 min, 500×g). The supernatant is hereafter called “the culture”.
But not all cultures were able to perform this reaction. Therefore, the remaining cultures E-L (10% (v/v)) were incubated for 3 days in Brain Heart Infusion broth (with 0.5 g/l cystein-HCl) under anaerobic conditions with 25 mg/l IX (FIG. 4).
To further investigate these inter-individual differences, a total of 51 fecal samples were incubated for 3 days in Brain Heart Infusion broth (with 0.5 g/l cystein-HCl) under anaerobic conditions, containing 25 mg/l IX (FIG. 5). The results are presented as % 8-PN production relative to the incubated IX concentration and samples were ordered by increasing 8-PN production capacity.

Compound: COc1cc(O)c(CC=C(C)C)c2c1C(=O)C[C@@H](c1ccc(O)cc1)O2 [IX, 5-O-methyl-8-prenylnaringenin]
- Conversion of IX into 8-PN ([1]; PF+ compartment, after supplementing the E. limosum strain (from day 30)): the activation potential increased
- Conversion of IX into 8-PN ([1]; PF+ compartment, only IX administered (day 15-30)): activation of methoxylated prenylflavonoids was noted in the distal colon parts
- Conversion of IX into 8-PN ([1]; PF− compartment, after supplementing the E. limosum strain (from day 30)): production of the estrogenically active 8-PN was detected in the distal colon part
- Conversion of IX into 8-PN ([1]; PF− compartment, only IX administered (day 15-30)): no conversion occurred
- Estrogenic response of incubation extracts ([2]; fecal culture C incubated with 25 mg/l IX, after 8 days): strong increase in the estrogenic properties
- Estrogenic response of incubation extracts ([2]; fecal cultures A-D incubated with 25 mg/l IX, day 0): None of the incubations showed an estrogenic response
- Microbial O-demethylation of IX ([3]; fecal cultures E-L, 25 mg/l IX, 3 days anaerobic): only detected in samples E, J and K
- Share of tested fecal samples in which activation of IX occurred ([3]; fecal samples A-L): only a third of the tested samples

— patent US8709764B2, “Enzymatic demethylation of flavonoids” (Universiteit Gent, priority 2005, dated 2014)
